“And” between values parts separate entries of the source, which are not always exact repeats. Identical values can stand only once. Results filed as inconclusive are left out. The source made the active and inactive calls. No rule for the calls is given here.

Results on 79 molecules are retold here after PubChem BioAssay AID1259420 (Broad Institute, 2018).

For the assay, the system named is Toxoplasma gondii growth in host cells, no IFN-gamma. The assay is described as follows: compound activity on host-cell Toxoplasma growth – dose response (AID 1259420).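 Also: host cells were HeLa; final incubation lasted 72 hours.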

Broadly, the AC50 is the midpoint of the concentration-response curve, whichever way the signal moves. With `COc1cc2nc(N3CCN(C(=O)c4ccco4)CC3)nc(N)c2cc1OC`, the AC50 is 19 µM. The result for `O=C(C1CCC1)N1C[C@@H]2N[C@H](C1)C2c1ccc(/C=C/c2ccccc2)cc1` (some centres undefined) reads 12.7 µM and 11.5 µM; that for `O=C(Nc1cccc(F)c1)N1CCCCN2[C@H](CO)[C@H](c3ccc(C#Cc4cccnc4)cc3)[C@H]2C1`, 16.4 µM. The result for `O=C(CC1CC1)N1CC[C@@H]2[C@H]1c1cc(-c3ccc(F)cc3)ccc1N[C@@H]2CO` reads 16.3 µM.

As for `CC(C)NC(=O)N1CC(=O)N2[C@@H](CO)[C@H](c3ccc(/C=C/c4ccccc4)cc3)[C@@H]2C1`, the AC50 was > 39 µM (inactive). For `CN(C)C(=O)c1ccc(-c2ccc([C@H]3[C@@H](CO)N4C(=O)CN(C(=O)CC5CC5)C[C@@H]34)cc2)cc1` the value was > 39 µM (inactive). For `Cc1ccccc1C(=O)N1CCC(N2CCOCC2)CC1C(=O)O` (centres undefined) the value was > 39 µM (inactive).

As for `O=C(NCc1cccnc1)C1CC2CN(Cc3cccc(Cl)c3)CC1O2` (centres undefined), the AC50 was 4.73 µM. The result for `CCc1cnc(N2[C@H](C#N)[C@@H](c3ccc(C#Cc4ccccc4F)cc3)[C@@H]2CO)s1` reads 16.3 µM; that for `CN(C)C(=O)COCC1CN(S(C)(=O)=O)Cc2nnn(C)c21` (centres undefined), > 39 µM (inactive); that for `COc1cc(CN2C[C@@H]3N[C@H](C2)C3c2ccc(-c3ccc(C#N)cc3)cc2)cc(OC)c1` (some centres undefined), 7.99 µM. For `O=C(C1CCC1)N1CC[C@H]2CN(Cc3cccc(Cl)c3)S(=O)(=O)[C@@H]2CC1` the value was > 39 µM (inactive); for `COc1cccc(S(=O)(=O)N2CCCCN3[C@H](CO)[C@H](c4ccc(-c5ccccc5)cc4)[C@H]3C2)c1`, 13.1 µM; for `Cc1ccc(S(=O)(=O)N2CC[C@@H]3[C@H]2c2cc(-c4ccccc4F)ccc2N(C)[C@H]3CO)cc1`, 20.4 µM. As to `COc1cccc(-c2ccc3c(c2)[C@@H]2[C@@H](CCN2S(=O)(=O)c2ccccc2F)[C@@H](CO)N3)c1`, the AC50 is 16 µM. Consider `c1cnc(N2CCC(Oc3cnccn3)CC2)nc1`, for which the AC50 was 15.6 µM.

For the molecule `CC(C)NC(=O)N1CC[C@@H]2[C@H]1c1cc(-c3ccc(F)cc3)ccc1N(C)[C@@H]2CO`, the AC50 is > 20 µM (inactive).

Consider `COc1ccccc1-c1ccc(C2[C@H]3CNC[C@@H]2N3S(=O)(=O)c2ccc(F)cc2)cc1` (some centres undefined), for which the AC50 was > 20 µM (inactive).

Turning to `COc1ccccc1NC(=O)N1CCCCN2[C@H](CO)[C@@H](c3ccc(-c4cccc(C#N)c4)cc3)[C@@H]2C1`, the AC50 is 16.4 µM.

As for `CCCCCCCCCCCCCCCC[n+]1ccccc1`, the AC50 is 6.86 µM.

For the molecule `CC(C)(C)OC(=O)Nc1cc(-c2cn[nH]c2C2CCCN(C(=O)OC(C)(C)C)C2)ccn1` (centres undefined), the AC50 is > 20 µM (inactive).

Regarding `COc1ccccc1-c1nc(CN2CCc3c(sc4c3CCCC4)C2c2ccccc2)c(C)o1` (centres undefined), the AC50 was 22.4 µM.

Regarding `CCCNC(=O)N1[C@H](C#N)[C@H](c2ccc(-c3ccccc3F)cc2)[C@H]1CO`, the AC50 is 11.3 µM. The result for `COc1ccc(-c2nc3c(s2)CN(S(=O)(=O)c2ccccc2C)CC3)cc1` reads 8.96 µM; that for `O=S1(=O)c2ccccc2O[C@H]2CCN(Cc3ccc(Cl)cc3)CC[C@H]2N1CC1CC1`, 22.5 µM; that for `N#Cc1ccc(-c2ccc(C3[C@@H]4CN(C(=O)C5CCCCC5)C[C@H]3N4)cc2)cc1` (some centres undefined), 16.7 µM. For `CCCNC(=O)N1C[C@@H]2N[C@H](C1)C2c1ccc(-c2ccc(OC)cc2)cc1` (some centres undefined) the value was 14.2 µM; for `CC(C)CC#Cc1ccc([C@H]2[C@@H](CO)N3CCCCN(C(=O)Nc4ccccc4)C[C@@H]23)cc1`, 15.5 µM. For `CN1c2ccc(C3=CCCCC3)cc2[C@@H]2[C@@H](CCN2C(=O)c2ccc3c(c2)OCO3)[C@@H]1CO` the value was 27.5 µM; for `N#C[C@@H]1[C@@H](c2ccc(C3=CCCCC3)cc2)[C@@H](CO)N1S(=O)(=O)c1ccccc1`, > 39 µM (inactive); for `N#Cc1cccc(-c2ccc3c(c2)[C@@H]2[C@@H](CCN2S(=O)(=O)c2ccc(F)cc2)[C@@H](CO)N3)c1`, 14.5 µM. `C=CCNc1nnc(Cl)c2ccccc12`: the AC50 is 17.8 µM. The result for `CCc1cnc(N2[C@@H](C#N)[C@@H](c3ccc(C4=CCCCC4)cc3)[C@@H]2CO)s1` reads > 20 µM (inactive); that for `CN1C(=O)CC2C1CCN2S(=O)(=O)Cc1ccccc1` (centres undefined), > 39 µM (inactive); that for `CCCCc1ccc(Nc2ncnc3c2cnn3-c2ccc(C)cc2C)cc1`, 11.6 µM. The result for `CCc1ccc(S(=O)(=O)N2CCC3(CCCN(Cc4c(C)noc4C)C3)C2)cc1` (centres undefined) reads 35.4 µM. The result for `Cc1cccc(-c2ccc(C3[C@@H]4CN(Cc5cccc(F)c5)C[C@H]3N4)cc2)c1` (some centres undefined) reads 19.4 µM; that for `O=C(Cc1ccccc1)N1CC[C@H]2[C@H](CO)Nc3ccc(C4=CCCCC4)cc3[C@H]21`, 13.9 µM. For the molecule `O=C(Cc1cccnc1)N1CC(=O)N2[C@H](CO)[C@@H](c3ccc(C#CC4CCCCC4)cc3)[C@H]2C1`, the AC50 was > 20 µM (inactive). For `COc1cccc(NC(=O)N2CC(=O)N3[C@H](CO)[C@@H](c4ccc(C#CCC5CCCC5)cc4)[C@@H]3C2)c1` the value was 14.4 µM and 13.4 µM. For `CC(C)(C)CC(C)(C)c1ccc(OCCOCC[N+](C)(C)Cc2ccccc2)cc1` the value was 14.1 µM; for `Cc1sc2ncnc(NCC3CCN(c4cnn(C)c(=O)c4)C3)c2c1C` (centres undefined), 29.6 µM; for `CC(C)NC(=O)N1CCC2(CC1)OCCN(CCO)c1ccccc12`, > 39 µM (inactive).

On to `COc1cccc(NC(=O)N2CC(=O)N3[C@H](CO)[C@H](c4ccc(C#CCC5CCCC5)cc4)[C@@H]3C2)c1`, for which the AC50 was 15.9 µM. The result for `O=S(=O)(c1ccccc1)N(CC(F)(F)F)c1ccc(C(O)(C(F)(F)F)C(F)(F)F)cc1` reads 14.2 µM; that for `O=C(CC1CCC2(CC1)CCN(c1ncc(F)cn1)CC2)N1CC=CC1`, 21.7 µM; that for `O=C(c1cnccn1)N1CC(=O)N2[C@H](CO)[C@@H](c3ccc(-c4cccc(F)c4)cc3)[C@@H]2C1`, 20 µM.

`O=C(Cc1ccccc1)N1CC(=O)N2[C@H](C1)[C@@H](c1ccc(-c3ccc(F)cc3)cc1)[C@@H]2CO`: the AC50 was 24.7 µM. As for `O=C(Nc1cccc(F)c1)N1CCCCN2[C@@H](CO)[C@H](c3ccc(C#Cc4cccnc4)cc3)[C@@H]2C1`, the AC50 was 3.04 µM.

For `OC[C@@H]1Nc2ccc(-c3cccc(F)c3)cc2[C@H]2[C@@H]1CCN2Cc1ccc(F)cc1`, the AC50 was > 20 µM (inactive). As to `Cc1ccc(S(=O)(=O)Nc2ccc3c(c2)C(=O)N([C@@H](C)CO)C[C@@H](C)[C@H](CN(C)Cc2ccc(C(F)(F)F)cc2)O3)cc1`, the AC50 was > 20 µM (inactive). For `CCc1cnc(N2[C@H](C#N)[C@H](c3ccc(-c4cccc(F)c4)cc3)[C@H]2CO)s1` the value was 22.6 µM; for `CC(C)N1CCC2(CC1)CC(COCC1CC1)N(c1ncccn1)C2` (centres undefined), 35.9 µM. As for `N#C[C@H]1[C@H](c2ccc(C#Cc3ccccc3F)cc2)[C@@H](CO)N1C(=O)c1cccnc1`, the AC50 is > 39 µM (inactive). For `CN1c2ccc(C#Cc3cccnc3)cc2[C@@H]2[C@@H](CCN2C(=O)c2cccc(F)c2)[C@@H]1CO` the value was 30.3 µM; for `Cc1cccc(-c2ccc([C@H]3[C@@H](CO)N4CCCCN(S(=O)(=O)c5ccccc5F)C[C@H]34)cc2)c1`, 16.4 µM and 19.5 µM. The result for `CC(=O)NC1=NN(C(C)=O)C(C)(c2ccccc2)S1` (centres undefined) reads > 20 µM (inactive). For `COCCNC(=O)C[C@@H]1C[C@@H]2CN(Cc3ccncc3)C[C@H]2O1` the value was 29 µM; for `C=C(C)[C@@H]1CC[C@]2(C(=O)O)CC[C@]3(C)[C@H](CC[C@@H]4[C@@]5(C)CC[C@H](O)C(C)(C)[C@@H]5CC[C@]43C)[C@@H]12`, 26.9 µM. `COc1cc([C@@H]2c3cc4c(cc3C(OC3O[C@@H]5COC(C)O[C@H]5[C@H](O)[C@H]3O)C3COC(=O)[C@@H]32)OCO4)cc(OC)c1O` (some centres undefined): the AC50 is 23.5 µM. For `Cc1ccc(S(=O)(=O)N2C[C@H](O)COC[C@@H]3O[C@H](CC(=O)NCc4ccc5c(c4)OCO5)CC[C@H]32)cc1` the value was > 39 µM (inactive); for `COc1cccc(CN2C[C@@H]3N[C@H](C2)C3c2ccc(-c3ccccc3C)cc2)c1` (some centres undefined), 12.3 µM; for `O=C(Cc1ccc(Cl)cc1)N1CC2(CCN(Cc3ccc(C(F)(F)F)cc3)CC2)C1`, > 39 µM (inactive). The result for `CN1c2ccc(-c3ccccc3)cc2[C@@H]2[C@@H](CCN2C(=O)CC2CC2)[C@@H]1CO` reads 25.3 µM; that for `Cc1nc2c(cnn2-c2ccccc2)c(=O)n1-c1cccc2ccccc12`, 10.9 µM. For `COc1ccc(-c2nc3c(s2)CN(S(=O)(=O)c2cc(C)cc(C)c2)CC3)cc1` the value was 5.99 µM; for `CC(C)CC#Cc1ccc([C@@H]2[C@@H](CO)N3CCCCN(C(=O)Nc4ccccc4)C[C@@H]23)cc1`, 23.7 µM.

Turning to `CC(C)CNC(=O)c1nc2c(s1)CCN(C(=O)NCc1ccccc1)CC2`, the half-maximal activity concentration (AC50) is 18.3 µM. Consider `N#C[C@@H]1[C@@H](c2ccc(C#Cc3cccnc3)cc2)[C@@H](CO)N1C(=O)NC1CCCCC1`, for which the AC50 is > 39 µM (inactive).

As to `Cc1ccc2c(c1)c(Cn1cc(-c3sccc3C)nn1)nn2C`, the AC50 is 31.1 µM and 25.4 µM. The result for `COc1cccc(CNC(=O)c2cc3c(s2)CCN3C(=O)c2ccc(F)cc2)c1` reads 2.74 µM; that for `NCCCCCCCCCCNS(=O)(=O)c1cccc2c(Cl)cccc12`, 15.9 µM; that for `CN1C(=O)c2cc(NC(=O)Cc3cccs3)ccc2OC[C@H]2O[C@H](CC(=O)NCc3ccc(-c4ccccc4)cc3)CC[C@@H]21`, 29.4 µM. Regarding `CCCC(C)c1c(-c2ccccc2)ncn1Cc1cnc(C)cn1` (centres undefined), the AC50 was 36.1 µM.

`N#Cc1ccc(-c2ccc([C@H]3[C@@H](CO)N4C(=O)CNC[C@@H]34)cc2)cc1`: the AC50 is > 39 µM (inactive). Turning to `O=C(c1ccc(F)cc1)N1CC(=O)N2[C@H](CO)[C@H](c3ccc(C#CCC4CCCC4)cc3)[C@@H]2C1`, the AC50 is 14.7 µM.

For the molecule `CCCNC(=O)N1CC(=O)N2[C@@H](CO)[C@@H](c3ccc(C#Cc4cccc(OC)c4)cc3)[C@@H]2C1`, the AC50 is 31.2 µM. Take `COc1ccc(NC(=O)N2CCCCN3[C@H](CO)[C@@H](c4ccc(-c5ccccc5F)cc4)[C@H]3C2)cc1`: the AC50 is 19.7 µM. The result for `CC(C)C#Cc1ccc([C@H]2[C@@H](C#N)N(C(=O)c3cccc(F)c3)[C@@H]2CO)cc1` reads 14.1 µM.
